PMC12440824, “Chimeric deubiquitinase engineering reveals structural basis for specific inhibition of the mitophagy regulator USP30” (Nature Structural & Molecular Biology, 2025)
Read-outs that look alike come from different tables or passages of the source.

Tests used:
USP30^ch3 L328F = assay: Thermal shift assay, USP30 ch3 L328F; assay type: binding, human; conditions: 20 μM inhibitor; for ΔTm, USP30^ch3 L328F: replicates or average
Protocol: (§1) The thermal stability of USP30 constructs and effects of either inhibitor or Ub-PA binding were determined by thermal shift assays. Inhibitor, Ub-PA and SYPRO orange dye (Sigma, 5,000× stock in DMSO) solutions were prepared in 1× PBS, 4 mM DTT. Inhibitor/Ub-PA was prediluted to 100 µM, and SYPRO orange dye was prediluted to 50× (from the commercial stock). Mixtures of protein, inhibitor/Ub-PA and SYPRO were prepared with inhibitor/Ub-PA at a final concentration of 20 μM, SYPRO at a final concentration of 4× and protein at a final concentration of 2 μM for c1, 4 μM for ch1, ch4 and c2 and 3 μM for ch2 and ch3. Samples were added in triplicate to a white 96-well PCR plate (Bio-Rad). Fluorescence intensity was monitored (excitation, 450–490 nm; emission, 560–580 nm) at a gradient of 20–90 °C (increment of 0.3 °C, hold for 5 s before read) on a real-time PCR system (Bio-Rad).

USP30^ch3 F453Y = USP30^ch3 F453Y (Homo sapiens, UniProt Q70CQ3, F453Y, form not given); assay: Thermal shift assay, USP30 ch3 F453Y; assay type: binding; conditions: 20 μM inhibitor
Protocol: as §1

USP30^ch3 F157A = USP30^ch3 F157A (Homo sapiens, UniProt Q70CQ3, F157A, form not given); assay: Thermal shift assay, USP30 ch3 F157A; assay type: binding; conditions: 20 μM inhibitor
Protocol: as §1

[1] = tested on: T1, endogenous USP30 in HEK293 cells; assay: Cellular ubiquitin probe competition, endogenous USP30; assay type: cell-based, human; conditions: 8 µM compound, 2 h; HA-Ub-PA probe in lysate
T1 construct: Target engagement assay with endogenous USP30; endogenous in cells; host or cells: HEK293 (DSMZ ACC 305)
Protocol: Cells were seeded at 8 × 10^5 cells per well and grown for 48 h. Compounds (2 µM for overexpressed USP30, 8 µM for endogenous USP30) or DMSO were added for 2 h in freshly supplied medium. The medium was aspirated, and cells were washed once with ice-cold PBS. Cells were collected by scraping in lysis buffer (150 mM NaCl, 250 mM sucrose, 50 mM Tris, pH 8.0, 5 mM TCEP) supplemented with EDTA-free complete protease inhibitor cocktail and benzonase. Suspended cells were homogenized by 12 bursts of a microtip probe sonicator (Branson Sonifier 450) at 10% amplitude with pulses of 1 s on ice. Remaining cell debris was separated by centrifugation (20,817g, 5 min, 4 °C). HA-Ub-PA probe was added to the cleared lysate (approximately 2–4 mg ml^−1) at a final concentration of 10 μM when indicated. After incubation for 10 min at room temperature, reactions were quenched by the addition of 4× reducing LDS sample buffer. Samples were resolved by SDS–PAGE and further analyzed via western blot.
Using a Trans-Blot Turbo system (Bio-Rad, 1.0 A, 25 V, 30 min), proteins were blotted onto a nitrocellulose membrane. […] Images were recorded on a ChemiDoc MP Imaging System (Bio-Rad).

[2] = tested on: T2, Flag-tagged, full-length USP30 (wild type) in HEK293 cells; assay: Cellular ubiquitin probe competition, overexpressed Flag-tagged full-length USP30 wild type; assay type: cell-based, human; conditions: 2 µM compound, 2 h; HA-Ub-PA probe in lysate
T2 construct: C-terminally Flag-tagged human USP30 (1–517) was used for transient transfection; expressed in transfected cells; host or cells: HEK293, transient transfection of a pOPINE vector
Protocol: HEK293 cells (8 × 10^5 cells per well) were seeded in six-well plates and cultivated for 24 h. PEI transfecting reagent (Polysciences) was pre-incubated for 10 min with the vectors in 200 μl Opti-MEM medium (2 µg DNA per well). Cells were transfected and incubated for 48 h. Following the treatment with either compounds or DMSO in fresh medium for an additional 2 h, cells were processed as described below. Cells were seeded at 8 × 10^5 cells per well and grown for 48 h. […] The medium was aspirated, and cells were washed once with ice-cold PBS. Cells were collected by scraping in lysis buffer (150 mM NaCl, 250 mM sucrose, 50 mM Tris, pH 8.0, 5 mM TCEP) supplemented with EDTA-free complete protease inhibitor cocktail and benzonase. Suspended cells were homogenized by 12 bursts of a microtip probe sonicator (Branson Sonifier 450) at 10% amplitude with pulses of 1 s on ice. Remaining cell debris was separated by centrifugation (20,817g, 5 min, 4 °C). […] After incubation for 10 min at room temperature, reactions were quenched by the addition of 4× reducing LDS sample buffer. Samples were resolved by SDS–PAGE and further analyzed via western blot. Using a Trans-Blot Turbo system (Bio-Rad, 1.0 A, 25 V, 30 min), proteins were blotted onto a nitrocellulose membrane. […]

USP30^c1 = molecular target: T3, USP30^c1 (Homo sapiens, UniProt Q70CQ3, DEL179-208/DEL211-214/DEL358-428/F348D/I353E/M350S/N216S/S215G); assay: Thermal shift assay, USP30 c1; assay type: binding; conditions: for Tm in presence of compound, USP30^c1: 20 μM inhibitor
T3 sequence (Q70CQ3 with tags, fused parts or gaps DEL179-208/DEL211-214/S215G/N216S/F348D/M350S/I353E/DEL358-428): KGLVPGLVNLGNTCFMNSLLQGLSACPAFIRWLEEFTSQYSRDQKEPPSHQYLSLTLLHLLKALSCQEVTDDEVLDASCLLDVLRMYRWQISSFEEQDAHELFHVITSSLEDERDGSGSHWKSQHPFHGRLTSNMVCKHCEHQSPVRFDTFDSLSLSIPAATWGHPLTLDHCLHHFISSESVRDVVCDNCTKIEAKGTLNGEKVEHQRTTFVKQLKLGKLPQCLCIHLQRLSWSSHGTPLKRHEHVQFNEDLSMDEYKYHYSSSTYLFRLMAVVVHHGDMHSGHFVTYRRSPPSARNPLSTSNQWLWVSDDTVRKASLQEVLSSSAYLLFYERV
Protocol: as §1

USP30^ch3 F157A, sequence (Q70CQ3 64-502 F157A, form open): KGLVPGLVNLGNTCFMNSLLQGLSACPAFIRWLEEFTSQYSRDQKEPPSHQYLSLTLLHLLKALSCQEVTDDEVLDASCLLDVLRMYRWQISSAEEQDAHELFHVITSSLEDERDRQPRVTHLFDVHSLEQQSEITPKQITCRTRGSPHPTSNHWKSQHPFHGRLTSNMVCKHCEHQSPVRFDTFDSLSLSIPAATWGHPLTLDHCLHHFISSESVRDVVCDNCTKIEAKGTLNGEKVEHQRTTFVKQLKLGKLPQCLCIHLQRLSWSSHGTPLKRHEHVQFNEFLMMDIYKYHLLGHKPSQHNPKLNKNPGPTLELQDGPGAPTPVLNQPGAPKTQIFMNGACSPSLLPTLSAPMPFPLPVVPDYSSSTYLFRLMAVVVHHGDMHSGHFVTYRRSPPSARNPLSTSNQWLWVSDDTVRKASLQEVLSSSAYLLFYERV
USP30^ch3 F157A, sequence (P54578 248-318 partner, form open): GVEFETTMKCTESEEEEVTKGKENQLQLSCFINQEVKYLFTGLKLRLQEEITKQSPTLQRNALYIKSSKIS
USP30^ch3 F157A, sequence (Q9P2H5 821-846 partner, form open): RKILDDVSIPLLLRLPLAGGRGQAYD
USP30^ch3 F453Y, sequence (Q70CQ3 64-502 F453Y, form open): as the sequence (Q70CQ3 64-502 F157A, form open) above, with A94F, F390Y counted along it
USP30^ch3 F453Y, sequence (P54578 248-318 partner, form open): as the sequence (P54578 248-318 partner, form open) above

CC(C)(C)NS(=O)(=O)c1ccc(NC(=O)[C@H](Cc2ccccc2)NC(=O)c2ccc(F)cc2)cc1 [compound 39]
Tm in presence of compound, USP30^ch3 L328F (USP30^ch3 L328F): 58.5 °C
ΔTm, USP30^ch3 L328F (USP30^ch3 L328F): 1.5 °C
Tm in presence of compound, USP30^ch3 F453Y (USP30^ch3 F453Y): 58.5 °C
Tm in presence of compound, USP30^ch3 F157A (USP30^ch3 F157A): 58.8 °C
activity in probe-labeling experiment with endogenous USP30 [1]: confirmed
probe labeling of wild-type Flag-USP30 [2]: abolished probe labeling
Tm in presence of compound, USP30^c1 (USP30^c1): 58.9 °C
ΔTm at 20 µM (USP30^c1; read-out: ΔTm, USP30^c1): 7.8 °C

CC(C)(CO)NS(=O)(=O)c1ccc(NC(=O)[C@H](Cc2ccccc2)NC(=O)c2ccc(F)cc2)cc1 [NK036]
Tm in presence of compound, USP30^ch3 L328F (USP30^ch3 L328F): 58.2 °C
ΔTm, USP30^ch3 L328F (USP30^ch3 L328F): 1.2 °C
Tm in presence of compound, USP30^ch3 F453Y (USP30^ch3 F453Y): 58.2 °C
Tm in presence of compound, USP30^ch3 F157A (USP30^ch3 F157A): 58.5 °C
activity in probe-labeling experiment with endogenous USP30 [1]: confirmed
probe labeling of wild-type Flag-USP30 [2]: abolished probe labeling
Tm in presence of compound, USP30^c1 (USP30^c1): 58.3 °C
ΔTm at 20 µM (USP30^c1; read-out: ΔTm, USP30^c1): 7.2 °C
ΔTm at 20 µM (USP30^c1; read-out: ΔTm, column headed USP30c1 in sheet Fig. 4f): 6.1 °C
